Source: US20030077289A1, “Use of cell-penetrating peptides to generate antitumor immunity” (priority 2001, published 2003)
Residues, ends and D or L forms follow the SMILES beside them.

Experiments:
[1] = system: B16 tumor; settings: Schreurs et al., 2000; 9-mer versus 8-mer; cited from earlier work
[2] = system: CD4+ T cells; experiment: Peptide-specific CD4+ T cell activity; assay type: cell-based
[3] = system: mature DCs; experiment: Entry of fluorescein-labeled peptides into mature DCs (fluorescence microscopy); assay type: cell-based, C57BL/6 mouse
Method: 1A) Peptide sequences for cell-penetrating peptide (CPP1), TRP-2 and control peptides. B) Fluorescence and phase-contrast microscopy of DC incubated with various peptide-FITC (40×magnification). DCs incubated with PBS served as a control. 1C) DCs incubated with CPP1-TRP2-FITC and viewed by phase-contrast or fluorescence microscopy at 60×magnification. Representative examples of DC/CPP1-TRP2-FITC are shown. The penetrating fluorescent peptide was localized in both the cytoplasm as well as the cell nucleus. 1D) T cell response to DCs loaded with each peptide (solid circle for CPP1-TRP2, open circle for TRP2, and open triangle for CPP1-βgal) at different time points after peptide pulsing. GM-CSF release from T cells was determined by ELISA.
Dendritic Cell Preparation and Analysis. Mouse immature and mature DCs were derived from C57BL/6 bone marrow as previously described (Labeur et al., 1999; Specht et al., 1997). Phenotype and mixed leukocyte reaction activity of DCs were analyzed according to the protocol described (Specht et al., 1997). Briefly, immature DCs were generated in the presence of murine GM-CSF without transfer steps. The loosely adherent immature DCs were harvested on day 5 and used for experiments. Mature DCs were generated in the presence of recombinant GM-CSF and 1000 U/ml of IL-4 (Peprotech, Rocky Hill, N.J.). […]

## CC(C)C[C@H](NC(=O)[C@H](Cc1c[nH]c2ccccc12)NC(=O)[C@@H](NC(=O)[C@H](Cc1ccccc1)NC(=O)[C@H](Cc1ccccc1)NC(=O)[C@H](CC(=O)O)NC(=O)[C@H](Cc1ccc(O)cc1)NC(=O)[C@@H](N)C(C)C)C(C)C)C(=O)O [TRP2 (VYDFFVWL 8-mer), VYDFFVWL] (H-VYDFFVWL-OH)
[1]
  CTL activity in vitro after multiple immunization: comparable

## SVYDFFVWL [TRP2, reference compound]
[2]
  peptide-specific CD4+ T cell activity: not detected

## AAVLLPVLLAAPSVYDFFVWL [CPP1-TRP2, TRP2 peptide covalently linked to cell-penetrating peptide CPP1 (21-mer)]
[2]
  peptide-specific CD4+ T cell activity: not detected
[3]; fluorescein-labeled peptide, mature DC
  intracellular localization of peptide in DCs: translocated and accumulated in the cytoplasm as well as the cell nucleus
[3]; peptide labeled at N-terminus with fluorescein, incubated with mature DC
  internalization of peptide into mature DCs: efficiently internalized
